Data reported in paper PMC12813973, “Consequences of Peptide Macrocyclization Revealed by Virus-Inspired β‑Hairpin Mimetics” (ACS Chemical Biology, 2025).
Read-outs that look alike come from different tables or passages of the source.

What was measured:
STAT1 [1] = molecular target: T1, STAT1 (Homo sapiens, UniProt P42224); experiment: Isothermal titration calorimetry (ITC) of peptide binding to STAT1
T1 construct: full-length STAT1 (Uniprot #P42224-1) was expressed in E. coli; His tag (pEXP-NHis vector) (N); made in house; host or cells: E. coli T7 Express
T1 sequence (P42224 1-750): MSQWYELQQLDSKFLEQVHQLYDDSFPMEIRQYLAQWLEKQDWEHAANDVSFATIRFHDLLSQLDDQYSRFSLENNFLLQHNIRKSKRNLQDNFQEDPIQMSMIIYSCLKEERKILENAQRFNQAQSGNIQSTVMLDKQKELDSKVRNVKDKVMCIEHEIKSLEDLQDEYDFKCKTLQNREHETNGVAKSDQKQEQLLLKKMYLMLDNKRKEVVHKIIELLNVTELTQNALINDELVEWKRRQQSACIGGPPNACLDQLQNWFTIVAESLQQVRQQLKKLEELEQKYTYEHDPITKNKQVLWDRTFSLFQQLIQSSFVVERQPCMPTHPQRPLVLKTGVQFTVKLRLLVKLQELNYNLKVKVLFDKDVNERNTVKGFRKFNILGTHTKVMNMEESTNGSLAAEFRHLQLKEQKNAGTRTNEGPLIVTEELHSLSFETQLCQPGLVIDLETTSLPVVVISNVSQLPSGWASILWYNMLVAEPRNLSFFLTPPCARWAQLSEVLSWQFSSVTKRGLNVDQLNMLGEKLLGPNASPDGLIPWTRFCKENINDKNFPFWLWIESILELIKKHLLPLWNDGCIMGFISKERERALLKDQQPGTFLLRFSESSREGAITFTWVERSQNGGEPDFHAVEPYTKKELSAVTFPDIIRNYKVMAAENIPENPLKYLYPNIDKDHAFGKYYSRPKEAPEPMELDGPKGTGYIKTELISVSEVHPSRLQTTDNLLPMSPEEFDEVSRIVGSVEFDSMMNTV
Procedure: To determine affinities and thermodynamic profiles of binding, we performed isothermal titration calorimetry (ITC) experiments for peptides 1, 2, 3, 4, 7, and 8 (Figures A,B and S1,S2, Table S1). […] The experiments were repeated in two different buffer systems, TBST (50 mM Tris pH 8.0, 300 mM NaCl, 0.01% Tween-20) and PBST ([…], 150 mM NaCl, 0.01% Tween-20), to account for possible buffer protonation enthalpy artifacts. […]
Isothermal titration calorimetry (ITC)
ITC experiments were performed using a PEAQ ITC instrument (Malvern Panalytical) in either TBST (50 mM Tris pH 8.0, 300 mM NaCl, 0.5 mM TCEP, 0.01% Tween -20) or PBST (10 mM sodium phosphate pH 7.4, 150 mM NaCl, 0.01% Tween -20) as reaction buffers. STAT1 protein was buffer -exchanged into reaction buffer supplemented with 2% DMSO on a NAP -5 deslating column (Cytiv a #17085301) and its concentration was adjusted to 10 or 20 μM.
Peptides were diluted in reaction buffer from DMSO stocks to a matching 2% DMSO concentration. Peptide concentrations were adjusted to approximately 100-200 μM. ITC experiments were performed with STAT1 in the cell and peptides in the syringe at 25°C, with 750 RPM stirring, DP = 4 μcal/sec. 18 injections of 2 μl were performed over a 50 min titration.
Thermogram integra tion and isotherm fitting were performed using the PEAQ ITC analysis software (Malvern Panalytical ). Isotherms were fitted using a 1:1 binding model. Due to challenges in determining peptide concentrations with high accuracy , protein concentrations and stoichiometry (N=1.0) were kept constant during isotherm fitting, whereas peptide concentrations were allowed to vary. Fixing a single reactant concentration during fitting is acceptable given the sufficiently high C -values and isotherm curvature observed in the […]
Offset subtraction was implemented to remove injection heats.

STAT1 [2] = molecular target: T1, STAT1; experiment: Grating-coupled interferometry (GCI) waveRAPID kinetics, immobilised full-length STAT1; format: binding; settings: for kd / kon at 0.5 µM: analyte 0.5 µM; for kon at 0.5 µM: read-out: ka
From the text: Understanding the molecular determinants of kinetic rate constants of binding (k a, k d) can aid the design of pharmacological probes with longer target engagement, which is beneficial for drug efficacy and decreased toxicity. , We characterized the binding kinetics of 018-derived macrocycles by using grating-coupled interferometry (GCI). We used waveRAPID, a regeneration-free kinetic binding assay that applies sequential analyte pulses of increasing duration onto a GCI biosensor surface with an immobilized target (Figures A, and S3,S4, Table S2).
Grating coupled interferometry (GCI)
GCI experiments were performed on a Creoptix WaveDELTA instrument (Malvern Panalytical). Full-length STAT1 or STAT3 were immobilised on a 4PCH chip (Malvern Panalytical #4PCH-03) to a density 2000-8000 pg/mm2 using EDC/NHS activation followed by amine coupling. Briefly, proteins (500 nM) were applied onto an activated chip in 10 mM MES pH 6.5, 20 mM NaCl, after which the chip surface was passivated with 1M ethanolamine, pH 8.0.
The kinetic measurements were perfor med using 20 mM HEPES pH 7.5, 300 mM NaCl, 0.01% Tween-20, 0.0005% DMSO as running buffer. Peptides were tested at 0.5 or 10 μM concentration using the waveRAPID kinetics experiment with the tight binder or intermediate binder mode, respectively.[4] Sensorgrams were fitted in the waveControl software (Malven Panalytical) using the 1:1 kinetic model. […]

STAT1 [3] = molecular target: T1, STAT1; experiment: Fluorescence polarization competition assay with fluorescein-labelled pIFNGR1 docking site peptide probe; format: binding; settings: 10 nM fluorescein pIFNGR1 probe, STAT1 1.5 μM, 20 mM Tris pH 8.0, 300 mM NaCl, 0.1% Tween-20, 0.5 mM TCEP, 2.5% DMSO, room temperature; four parameter logistic fit; read-out: IC50 (FP competition, pIFNGR1 probe displacement)
[4] = PBST, replicate 1 (first listed run, Table S1)
[5] = PBST, replicate 2 (second listed run, Table S1)
[6] = PBST, replicate 3 (third listed run, Table S1)
[7] = TBST, replicate 1 (first listed run, Table S1)
[8] = TBST, replicate 2 (second listed run, Table S1)
[9] = TBST, replicate 3 (third listed run, Table S1)
[10] = replicate 1 (first listed run, Table S2)
[11] = replicate 2 (second listed run, Table S2)
[12] = replicate 3 (third listed run, Table S2)

**Q.** How did the Kd (STAT1 [1]; PBST pH 7.4 (NaPi, 150 mM NaCl, 0.01% Tween-20), average of 2–3 technical replicates, read-out: KD (ITC, summary Fig 2B)) turn out when `CC[C@H](C)[C@H](NC(=O)[C@H](Cc1ccccc1)NC(=O)[C@@H](NC(=O)[C@H](CO)NC(=O)[C@H](Cc1c[nH]c2ccccc12)NC(=O)[C@H](CCSC)NC(C)=O)C(C)C)C(=O)N[C@@H](Cc1c[nH]cn1)C(=O)NCC(=O)N[C@@H](Cc1c[nH]cn1)C(=O)N[C@@H](CC(=O)O)C(=O)NCC(=O)N[C@@H](CO)C(=O)N[C@@H](CC(N)=O)C(=O)N[C@@H](CCCCN)C(=O)NCC(=O)N[C@@H](CO)C(=O)N[C@@H](CCCCN)C(=O)N[C@H](C(=O)N[C@@H](Cc1ccc(O)cc1)C(=O)N[C@H](C(N)=O)[C@@H](C)O)[C@@H](C)O` [Peptide 1] was run?
**A.** Its Kd is 0.253 µM.

**Q.** And the “-T∆S” value (STAT1 [1]; [4])?
**A.** Its value is 57.7 kJ/mol.

**Q.** What about the “∆G” value (STAT1 [1]; [4]) of the same compound?
**A.** The value was -37.7 kJ/mol.

**Q.** What about the “∆H” value (STAT1 [1]; [4]) of the same compound?
**A.** The value was -95.4 kJ/mol.

**Q.** What about the “-T∆S” value (STAT1 [1]; [5]) of the same compound?
**A.** The value was 53.1 kJ/mol.

**Q.** And the “∆G” value (STAT1 [1]; [5])?
**A.** The value was -38.4 kJ/mol.

**Q.** What about the “∆H” value (STAT1 [1]; [5]) of the same compound?
**A.** Its value is -91.2 kJ/mol.

**Q.** And the “-T∆S” value (STAT1 [1]; [6])?
**A.** Its value is 57.3 kJ/mol.

**Q.** What about the “∆G” value (STAT1 [1]; [6]) of the same compound?
**A.** The value was -37.1 kJ/mol.

**Q.** What about the “∆H” value (STAT1 [1]; [6]) of the same compound?
**A.** Its value is -94.6 kJ/mol.

**Q.** What about the Kd (STAT1 [1]; TBST (50 mM Tris pH 8.0, 300 mM NaCl, 0.01% Tween-20), 25°C, 1:1 model, average of three technical replicates ± SD (text and Fig 2A), SD, read-out: KD (ITC)) of the same compound?
**A.** The Kd was 0.533 ± 0.02 µM.

**Q.** And the “-TΔS (ITC)” value (STAT1 [1]; TBST, mean ± SD, SD)?
**A.** Its value is 42.26 ± 6.19 kJ/mol.

**Q.** What about the “ΔH (ITC)” value (STAT1 [1]; TBST, mean ± SD, SD) of the same compound?
**A.** The value was -77.66 ± 6.49 kJ/mol.

**Q.** And the “-T∆S” value (STAT1 [1]; [7])?
**A.** Its value is 41.3 kJ/mol.

**Q.** What about the “∆G” value (STAT1 [1]; [7]) of the same compound?
**A.** The value was -35.7 kJ/mol.

**Q.** And the “∆H” value (STAT1 [1]; [7])?
**A.** Its value is -75.7 kJ/mol.

**Q.** What about the “-T∆S” value (STAT1 [1]; [8]) of the same compound?
**A.** The value was 36.6 kJ/mol.

**Q.** And the “∆G” value (STAT1 [1]; [8])?
**A.** Its value is -35.9 kJ/mol.

**Q.** What about the “∆H” value (STAT1 [1]; [8]) of the same compound?
**A.** Its value is -72.4 kJ/mol.

**Q.** And the “-T∆S” value (STAT1 [1]; [9])?
**A.** Its value is 49 kJ/mol.

**Q.** And the “∆G” value (STAT1 [1]; [9])?
**A.** Its value is -35.8 kJ/mol.

**Q.** And the “∆H” value (STAT1 [1]; [9])?
**A.** The value was -84.9 kJ/mol.

**Q.** What about the Kd (STAT1 [2]; 20 mM HEPES pH 7.5, 300 mM NaCl, 0.01% Tween-20, 1:1 kinetic model, average of 2–4 technical replicates ± SD, SD) of the same compound?
**A.** The Kd was 0.0858 ± 0.0064 µM.

**Q.** What about the residence time (STAT1 [2]; STAT1, GCI, read-out: target residence time τ (τ = 1/kd) (converted)) of the same compound?
**A.** The residence time was 0.8 min.

**Q.** And the kd (STAT1 [2]; [10])?
**A.** Its kd is 0.0221 s⁻¹.

**Q.** What about the kon at 0.5 µM (STAT1 [2]; [10]) of the same compound?
**A.** Its kon at 0.5 µM is 241000 M⁻¹ s⁻¹.

**Q.** And the kd (STAT1 [2]; [11])?
**A.** The kd was 0.0172 s⁻¹.

**Q.** What about the kon at 0.5 µM (STAT1 [2]; [11]) of the same compound?
**A.** The kon at 0.5 µM was 217000 M⁻¹ s⁻¹.

**Q.** What about the kd (STAT1 [2]; [12]) of the same compound?
**A.** Its kd is 0.0226 s⁻¹.

**Q.** What about the kon at 0.5 µM (STAT1 [2]; [12]) of the same compound?
**A.** Its kon at 0.5 µM is 262000 M⁻¹ s⁻¹.

**Q.** And the IC50 (STAT1 [3])?
**A.** The IC50 was 4.3 µM.
